Results taken from PubChem BioAssay AID248 (DTP/NCI, 2004).
Where “and” joins values, the source holds several entries; their conditions need not be identical. Equal entries are not always repeated. Inconclusive results and toxic doses are left out.

System: L1210 leukemia ip in BDF1 mice, survival T/C
Test: NCI In Vivo Anticancer Drug Screen. Data for tumor model L1210 Leukemia (intraperitoneal) in B6D2F1 (BDF1) mice
Conditions: endpoint: mean survival time, higher = longer survival
How it was run: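 Read-out is survival time, reported as the treated-group measurement over the vehicle-control measurement.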

[1] = dose: 100.0 mg/kg/injection, schedule: Q04DX003 (ip), vehicle: saline
[2] = dose: 200.0 mg/kg/injection, schedule: Q04DX003 (ip), vehicle: saline
[3] = dose: 100.0 mg/kg/injection, schedule: Q04DX003 (ip), vehicle: Klucel (hydroxypropylcellulose) (HPC)
[4] = dose: 200.0 mg/kg/injection, schedule: Q04DX003 (ip), vehicle: Klucel (hydroxypropylcellulose) (HPC)
[5] = dose: 400.0 mg/kg/injection, schedule: Q04DX003 (ip), vehicle: Klucel (hydroxypropylcellulose) (HPC)
[6] = dose: 75.0 mg/kg/injection, schedule: Q01DX001 (ip), vehicle: saline
[7] = dose: 150.0 mg/kg/injection, schedule: Q01DX001 (ip), vehicle: saline
[8] = dose: 300.0 mg/kg/injection, schedule: Q01DX001 (ip), vehicle: saline
[9] = dose: 100.0 mg/kg/injection, schedule: Q04DX002 (ip), vehicle: Klucel (hydroxypropylcellulose) (HPC)
[10] = dose: 200.0 mg/kg/injection, schedule: Q04DX002 (ip), vehicle: Klucel (hydroxypropylcellulose) (HPC)
[11] = dose: 400.0 mg/kg/injection, schedule: Q04DX002 (ip), vehicle: Klucel (hydroxypropylcellulose) (HPC)
[12] = dose: 100.0 mg/kg/injection, schedule: Q01DX009 (ip), vehicle: saline with Tween-80
[13] = dose: 100.0 mg/kg/injection, schedule: Q04DX003 (ip), vehicle: saline with Tween-80
[14] = dose: 200.0 mg/kg/injection, schedule: Q01DX009 (ip), vehicle: saline with Tween-80
[15] = dose: 200.0 mg/kg/injection, schedule: Q04DX003 (ip), vehicle: saline with Tween-80
[16] = dose: 400.0 mg/kg/injection, schedule: Q04DX003 (ip), vehicle: saline with Tween-80
[17] = dose: 100.0 mg/kg/injection, schedule: Q01DX009 (ip), vehicle: Klucel (hydroxypropylcellulose) (HPC)
[18] = dose: 100.0 mg/kg/injection, schedule: Q01DX001 (ip), vehicle: carboxymethylcellulose (CMC)
[19] = dose: 200.0 mg/kg/injection, schedule: Q01DX001 (ip), vehicle: carboxymethylcellulose (CMC)
[20] = dose: 400.0 mg/kg/injection, schedule: Q01DX001 (ip), vehicle: carboxymethylcellulose (CMC)
[21] = dose: 200.0 mg/kg/injection, schedule: Q01DX009 (ip), vehicle: Klucel (hydroxypropylcellulose) (HPC)
[22] = dose: 400.0 mg/kg/injection, schedule: Q01DX009 (ip), vehicle: Klucel (hydroxypropylcellulose) (HPC)
[23] = dose: 50.0 mg/kg/injection, schedule: Q04DX002 (ip), vehicle: Klucel (hydroxypropylcellulose) (HPC)

Structure (SMILES): O=C(O)c1nccc2c([N+](=O)[O-])cccc12
- T/C [1]: 97 % of control
- T/C [2]: 97 % of control
- T/C (dose: 400.0 mg/kg/injection, schedule: Q04DX003 (ip), vehicle: saline): 92 % of control

Structure (SMILES): CC1(C)Cc2cccc(C(O)(CCN3CCCCC3)c3ccccc3)c2O1 (stereo not given)
- T/C (dose: 20.0 mg/kg/injection, schedule: Q01DX001 (ip), vehicle: Klucel (hydroxypropylcellulose) (HPC)): 96 % of control
- T/C (dose: 40.0 mg/kg/injection, schedule: Q01DX001 (ip), vehicle: Klucel (hydroxypropylcellulose) (HPC)): 98 % of control
- T/C (dose: 80.0 mg/kg/injection, schedule: Q01DX001 (ip), vehicle: Klucel (hydroxypropylcellulose) (HPC)): 92 % of control
- T/C (dose: 100.0 mg/kg/injection, schedule: Q01DX001 (ip), vehicle: Klucel (hydroxypropylcellulose) (HPC)): 91 % of control

Structure (SMILES): O=C1C(Cl)=C(Nc2ccccc2)C(=O)c2ccccc21
- T/C [3]: 101 % of control
- T/C [4]: 101 % of control
- T/C [5]: 102 % of control

Structure (SMILES): CCN(CC)c1ccc(/C=N/NC(=S)NC23CC4CC(CC(C4)C2)C3)cc1
- T/C [6]: 100 % of control
- T/C [7]: 101 % of control
- T/C [8]: 92 % of control

Structure (SMILES): CC[N+]1(C)CCOCC1
- T/C [6]: 96 % of control and 94 % of control and 107 % of control
- T/C [7]: 94 % of control and 100 % of control and 98 % of control
- T/C [8]: 96 % of control and 98 % of control

Structure (SMILES): CCN(CC#CCOc1ccc(Cl)cc1Cl)c1ccccc1
- T/C [9]: 109 % of control
- T/C [10]: 98 % of control
- T/C [11]: 102 % of control

Structure (SMILES): c1ccc(-c2ncnc3c2Cc2ccccc2-3)cc1
- T/C (dose: 100.0 mg/kg/injection, schedule: Q04DX003 (ip), vehicle: saline sonified): 92 % of control
- T/C (dose: 200.0 mg/kg/injection, schedule: Q04DX003 (ip), vehicle: saline sonified): 94 % of control
- T/C (dose: 400.0 mg/kg/injection, schedule: Q04DX003 (ip), vehicle: saline sonified): 97 % of control

Structure (SMILES): Cc1ccc(NC(=O)OC/C=C/c2ccccc2)c([N+](=O)[O-])c1
- T/C [3]: 90 % of control
- T/C [4]: 93 % of control
- T/C [5]: 93 % of control

Structure (SMILES): CCCCCCCCCCCCCCCCCCNC(=S)NCCCCCCCCCCCCCCCC
- T/C (dose: 55.0 mg/kg/injection, schedule: Q01DX Z (ip), vehicle: methylcellulose (MC)): 123 % of control
- T/C (dose: 83.0 mg/kg/injection, schedule: Q01DX Z (ip), vehicle: methylcellulose (MC)): 106 % of control
- T/C (dose: 125.0 mg/kg/injection, schedule: Q01DX Z (ip), vehicle: methylcellulose (MC)): 104 % of control

Structure (SMILES): C/C=C\C(=O)N(CC)C(=NCC)c1ccc(NC(=O)c2ccc(C(=O)Nc3ccc(C(=NCC)N(CC)C(=O)/C=C/C)cc3)cc2)cc1
- T/C (dose: 0.56 mg/kg/injection, schedule: Q01DX015 (ip), vehicle: methylcellulose (MC)): 104 % of control
- T/C (dose: 1.12 mg/kg/injection, schedule: Q01DX015 (ip), vehicle: methylcellulose (MC)): 112 % of control
- T/C (dose: 2.25 mg/kg/injection, schedule: Q01DX015 (ip), vehicle: methylcellulose (MC)): 116 % of control
- T/C (dose: 4.5 mg/kg/injection, schedule: Q01DX015 (ip), vehicle: methylcellulose (MC)): 172 % of control
- T/C (dose: 6.25 mg/kg/injection, schedule: Q01DX015 (ip), vehicle: methylcellulose (MC)): 164 % of control

Structure (SMILES): O=c1[nH]c(=O)n(CC(O)c2ccc(Cl)s2)cc1F (stereo not given)
- T/C [12]: 100 % of control
- T/C [13]: 100 % of control
- T/C [14]: 101 % of control
- T/C [15]: 96 % of control
- T/C (dose: 400.0 mg/kg/injection, schedule: Q01DX009 (ip), vehicle: saline with Tween-80): 95 % of control
- T/C [16]: 97 % of control

Structure (SMILES): CNc1ncc2nc(C)c(=O)n(C)c2n1
- T/C (dose: 50.0 mg/kg/injection, schedule: Q01DX009 (ip), vehicle: Klucel (hydroxypropylcellulose) (HPC)): 98 % of control
- T/C [17]: 95 % of control

Structure (SMILES): O=C(Nc1ccc(C(=O)O)cc1)Nc1ccccc1Cl
- T/C (dose: 25.0 mg/kg/injection, schedule: Q04DX002 (ip), vehicle: saline): 106 % of control
- T/C (dose: 50.0 mg/kg/injection, schedule: Q04DX002 (ip), vehicle: saline): 100 % of control
- T/C (dose: 100.0 mg/kg/injection, schedule: Q04DX002 (ip), vehicle: saline + alcohol): 114 % of control
- T/C (dose: 100.0 mg/kg/injection, schedule: Q04DX002 (ip), vehicle: saline): 118 % of control

Structure (SMILES): C[Si](C)(C)Cc1ccc(Cl)cc1
- T/C (dose: 111.0 mg/kg/injection, schedule: Q01DX Z (ip), vehicle: saline): 104 % of control
- T/C (dose: 166.0 mg/kg/injection, schedule: Q01DX Z (ip), vehicle: saline): 91 % of control
- T/C (dose: 250.0 mg/kg/injection, schedule: Q01DX Z (ip), vehicle: saline): 98 % of control

Structure (SMILES): S=C(N/N=C/c1ccc(-c2ccccc2)cc1)Nc1ccccc1
- T/C [12]: 86 % of control
- T/C [13]: 97 % of control
- T/C [14]: 88 % of control
- T/C [15]: 100 % of control
- T/C [16]: 94 % of control

Structure (SMILES): Cc1cc(O)c(C)c(C(=O)O)c1
- T/C [18]: 98 % of control
- T/C [19]: 106 % of control
- T/C [20]: 98 % of control

Structure (SMILES): CCOc1ccccc1NC(=O)Nc1ccccc1OC
- T/C [17]: 103 % of control
- T/C [3]: 103 % of control
- T/C [21]: 98 % of control
- T/C [4]: 96 % of control
- T/C [22]: 98 % of control
- T/C [5]: 100 % of control

Structure (SMILES): CC(C)(C)c1cc(CN2CCCC(O)C2)c(O)c(-c2ccccc2)c1 (stereo not given)
- T/C [1]: 98 % of control
- T/C [2]: 98 % of control

Structure (SMILES): O=C(Nc1cccc(F)c1)Nc1cc(Cl)ccc1Cl
- T/C [17]: 96 % of control and 86 % of control
- T/C [21]: 102 % of control
- T/C [22]: 95 % of control and 92 % of control

Structure (SMILES): Cc1cccc(C2=N/C(=C\c3ccc4c(c3)OC(O)O4)C(=O)O2)c1 (stereo not given)
- T/C [9]: 97 % of control
- T/C [10]: 104 % of control
- T/C [11]: 104 % of control

Structure (SMILES): O=C1Cc2ccccc2N1C(=O)c1ccccc1
- T/C [23]: 97 % of control
- T/C [9]: 101 % of control
- T/C [10]: 90 % of control

Structure (SMILES): CC1=NC(C)CNC(C)(C)CC(C)=NC(C)CNC(C)(C)C1 (stereo not given)
- T/C (dose: 25.0 mg/kg/injection, schedule: Q04DX002 (ip), vehicle: Klucel (hydroxypropylcellulose) (HPC)): 88 % of control
- T/C [23]: 94 % of control
- T/C [9]: 112 % of control

Structure (SMILES): O=C(Nc1ccccc1F)c1ccc(C(=O)Nc2ccccc2F)cc1
- T/C (dose: 12.5 mg/kg/injection, schedule: Q01DX009 (ip), vehicle: saline with Tween-80): 92 % of control
- T/C (dose: 25.0 mg/kg/injection, schedule: Q01DX009 (ip), vehicle: saline with Tween-80): 86 % of control
- T/C (dose: 50.0 mg/kg/injection, schedule: Q01DX009 (ip), vehicle: saline with Tween-80): 90 % of control
- T/C [13]: 90 % of control
- T/C [15]: 87 % of control

Structure (SMILES): OCCOc1ccc(Cl)cc1Cl
- T/C (dose: 50.0 mg/kg/injection, schedule: Q01DX001 (ip), vehicle: other): 101 % of control
- T/C (dose: 75.0 mg/kg/injection, schedule: Q01DX009 (ip), vehicle: saline with Tween-80): 101 % of control
- T/C (dose: 100.0 mg/kg/injection, schedule: Q01DX001 (ip), vehicle: other): 103 % of control
- T/C (dose: 150.0 mg/kg/injection, schedule: Q01DX009 (ip), vehicle: saline with Tween-80): 98 % of control
- T/C (dose: 200.0 mg/kg/injection, schedule: Q01DX001 (ip), vehicle: other): 103 % of control
- T/C (dose: 300.0 mg/kg/injection, schedule: Q01DX009 (ip), vehicle: saline with Tween-80): 109 % of control

Structure (SMILES): O=C(O)C1CCCCC1
- T/C (dose: 50.0 mg/kg/injection, schedule: Q01DX001 (ip), vehicle: carboxymethylcellulose (CMC)): 96 % of control
- T/C [18]: 98 % of control
- T/C [19]: 104 % of control
- T/C [20]: 96 % of control

Structure (SMILES): O=C(Nc1cccc(C(F)(F)F)c1)OCCOc1ccc(Br)cc1
- T/C [17]: 98 % of control
- T/C [21]: 96 % of control
- T/C [22]: 92 % of control

Structure (SMILES): O=C(c1ccc(F)cc1)c1ccc2ccccc2c1C(=O)O
- T/C [9]: 89 % of control
- T/C [10]: 92 % of control
- T/C [11]: 99 % of control

Structure (SMILES): Cc1ccc(CC2CC(=O)c3ccccc3C2=O)cc1 (stereo not given)
- T/C [13]: 91 % of control
- T/C [15]: 91 % of control
- T/C [16]: 89 % of control
